Measurements: patent US20170008888A1 (KYORIN PHARMACEUTICAL CO., LTD., priority 2014, published 2017)

What was measured:
[1] = target: T1, JAK1 (Homo sapiens, UniProt P23458); test: Probe-based (AX9989) kinase profiling in Jurkat lysate: JAK1; assay type: binding; conditions: for inhibition at 1 µM: screening concentration 1 μM; for inhibition at 1 µM / inhibition at 10 µM: read-out: JAK1 Inhibition % at indicated screening concentration; for inhibition at 10 µM: screening concentration 10 μM
T1 construct: screened for activity against several kinases in Jurkat cells; endogenous in cells; host or cells: Jurkat cell lysate
In short: (§1)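 Compounds were pre-incubated for 15 min at room temperature with gel-filtered Jurkat cell lysate supplemented with 20 mM MnCl2, after which the acyl phosphate ATP probe AX9989 was added at 5 μM final. Labeled active-site peptides were enriched after tryptic digestion and measured by LC/MS, with percent inhibition taken relative to samples without compound.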

[2] = test system: human PBMCs; test: Human PBMC TNF-α response to endotoxin (ELISA); assay type: cell-based; conditions: 0.1 μg/ml LPS 16 h, read-out: EC50 for the inhibition of the human PBMC TNF-α response to endotoxin, ave. ± S.D.
Procedure: Human PBMCs (Astarte Biologics, Redmond, Wash.) were seeded at 2e6 cells/ml in RPMI 1640 containing 10% (v/v) charcoal-dextran treated, heat inactivated FBS (Omega Scientific, Tarzana, Calif.), 0.05 mM 2-Mercaptoethanol (Sigma-Aldrich, St. Louis, Mo.), and 1×Pen/Strep Amphotericin B (Lonza, Allendale, N.J.). Cells were pre-treated with test compounds (10 μM down by ⅕ in a 4-point serial dilution series) for 1 h at 37° C. in a humidified atmosphere at 5% CO2. Cells were then stimulated with 0.1 μg/ml lipopolysaccharide (LPS) from E. coli 0111:B4 (EMD Millipore, Billerica, Mass.) for 16 h at 37° C. in a humidified atmosphere at 5% CO2. Supernatant was collected and a 25-fold dilution was analyzed for TNF-α concentration using an ELISA kit from Life Technologies (Grand Island, N.Y.) according to the manufacturer's instructions. Absorbance at 450 nm was read using the Synergy 2 multi-detection microplate reader (BioTek Instruments, Winooski, Vt.).

[3] = target: T2, AurA (Homo sapiens, UniProt O14965); test: Probe-based (AX9989) kinase profiling in Jurkat lysate: AurA; assay type: binding; conditions: for inhibition at 1 µM: screening concentration 1 μM; for inhibition at 1 µM / inhibition at 10 µM: read-out: AurA Inhibition % at indicated screening concentration; for inhibition at 10 µM: screening concentration 10 μM
T2 construct: screened for activity against several kinases in Jurkat cells; endogenous in cells; host or cells: Jurkat cell lysate
T2 sequence (O14965 1-403): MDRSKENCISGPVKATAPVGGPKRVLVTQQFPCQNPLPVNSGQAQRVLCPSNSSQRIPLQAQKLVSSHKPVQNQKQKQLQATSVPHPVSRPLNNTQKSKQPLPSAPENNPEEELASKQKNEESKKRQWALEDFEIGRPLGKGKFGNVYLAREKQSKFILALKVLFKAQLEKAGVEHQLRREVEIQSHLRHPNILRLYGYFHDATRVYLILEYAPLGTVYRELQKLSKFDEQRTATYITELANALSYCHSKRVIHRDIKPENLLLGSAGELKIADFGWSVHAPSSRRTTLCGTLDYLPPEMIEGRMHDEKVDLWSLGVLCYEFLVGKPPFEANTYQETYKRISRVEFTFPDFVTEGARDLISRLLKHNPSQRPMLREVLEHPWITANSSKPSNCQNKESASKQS
In short: as §1

[4] = test system: AurB or AurC; test: Probe-based (AX9989) kinase profiling in Jurkat lysate: AurB or AurC; assay type: binding
In short: as §1

[5] = target: T3, TAO2 (Homo sapiens, UniProt Q9UL54); test: Probe-based (AX9989) kinase profiling in Jurkat lysate: TAO2; assay type: binding; conditions: for inhibition at 1 µM: screening concentration 1 μM; for inhibition at 1 µM / inhibition at 10 µM: read-out: TAO2 Inhibition % at indicated screening concentration; for inhibition at 10 µM: screening concentration 10 μM
T3 construct: screened for activity against several kinases in Jurkat cells; endogenous in cells; host or cells: Jurkat cell lysate
T3 sequence (Q9UL54 1-1235): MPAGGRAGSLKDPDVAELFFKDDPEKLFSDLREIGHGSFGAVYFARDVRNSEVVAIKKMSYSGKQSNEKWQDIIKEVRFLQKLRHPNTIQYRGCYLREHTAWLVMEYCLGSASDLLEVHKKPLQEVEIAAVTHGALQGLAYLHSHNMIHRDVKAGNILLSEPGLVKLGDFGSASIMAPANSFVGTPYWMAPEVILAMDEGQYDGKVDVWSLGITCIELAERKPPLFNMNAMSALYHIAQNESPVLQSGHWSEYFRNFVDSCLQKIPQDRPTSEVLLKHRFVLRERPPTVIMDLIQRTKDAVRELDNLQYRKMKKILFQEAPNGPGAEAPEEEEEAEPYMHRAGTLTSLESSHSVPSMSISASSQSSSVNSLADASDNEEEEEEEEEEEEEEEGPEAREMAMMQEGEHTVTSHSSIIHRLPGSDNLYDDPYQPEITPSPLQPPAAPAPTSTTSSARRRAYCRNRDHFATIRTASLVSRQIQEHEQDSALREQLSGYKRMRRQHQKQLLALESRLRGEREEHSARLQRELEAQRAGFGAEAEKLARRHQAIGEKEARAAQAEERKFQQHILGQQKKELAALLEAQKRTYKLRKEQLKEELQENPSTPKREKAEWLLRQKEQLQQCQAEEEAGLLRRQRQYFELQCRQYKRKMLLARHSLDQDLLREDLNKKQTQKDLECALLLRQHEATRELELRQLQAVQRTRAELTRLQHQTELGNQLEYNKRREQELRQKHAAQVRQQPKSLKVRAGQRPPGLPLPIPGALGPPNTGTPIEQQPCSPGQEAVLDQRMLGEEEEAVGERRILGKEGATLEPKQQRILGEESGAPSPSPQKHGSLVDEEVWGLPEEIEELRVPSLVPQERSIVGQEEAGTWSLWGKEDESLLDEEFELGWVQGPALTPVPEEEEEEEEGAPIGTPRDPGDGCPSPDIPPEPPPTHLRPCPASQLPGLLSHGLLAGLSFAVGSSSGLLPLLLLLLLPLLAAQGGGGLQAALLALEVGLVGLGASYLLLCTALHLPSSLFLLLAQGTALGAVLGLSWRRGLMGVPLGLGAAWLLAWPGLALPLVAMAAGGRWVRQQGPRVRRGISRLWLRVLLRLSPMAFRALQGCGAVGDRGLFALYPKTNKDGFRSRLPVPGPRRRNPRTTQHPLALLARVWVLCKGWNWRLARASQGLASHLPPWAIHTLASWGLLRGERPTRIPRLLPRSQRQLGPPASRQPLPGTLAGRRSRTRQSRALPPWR
In short: as §1

[6] = target: T4, ACK (Homo sapiens, UniProt Q07912); test: Probe-based (AX9989) kinase profiling in Jurkat lysate: ACK; assay type: binding; conditions: for inhibition at 1 µM: screening concentration 1 μM; for inhibition at 1 µM / inhibition at 10 µM: read-out: ACK Inhibition % at indicated screening concentration; for inhibition at 10 µM: screening concentration 10 μM
T4 construct: screened for activity against several kinases in Jurkat cells; endogenous in cells; host or cells: Jurkat cell lysate
In short: as §1

[7] = test system: ABL or ARG; test: Probe-based (AX9989) kinase profiling in Jurkat lysate: ABL or ARG; assay type: binding
In short: as §1

[8] = test system: AMPKa1 or AMPKa2; test: Probe-based (AX9989) kinase profiling in Jurkat lysate: AMPKa1 or AMPKa2; assay type: binding
In short: as §1

[9] = target: T5, ERK5 (Homo sapiens, UniProt Q13164); test: Probe-based (AX9989 acyl phosphate ATP probe) kinase profiling in Jurkat lysate: ERK5; assay type: binding; conditions: for IC50: Jurkat lysate; for inhibition at 1 µM: screening concentration 1 μM; for inhibition at 1 µM / inhibition at 10 µM: read-out: ERK5 Inhibition % at indicated screening concentration; for inhibition at 10 µM: screening concentration 10 μM
T5 construct: screened for activity against several kinases in Jurkat cells; endogenous in cells; host or cells: Jurkat cell lysate
In short: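 Gel-filtered Jurkat lysate (5 mg/ml, 20 mM MnCl2) preincubated 15 min at room temperature with compound, then labelled with 5 μM AX9989 acyl phosphate ATP probe. Probe-labelled ERK5 active-site peptides quantified by LC/MS after trypsin digestion and streptavidin capture; IC50 calculated from percent inhibition at the screening concentration.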

[10] = calculated from percent inhibition and screening concentration, AX9989 probe

T1 sequence (P23458 whole entry): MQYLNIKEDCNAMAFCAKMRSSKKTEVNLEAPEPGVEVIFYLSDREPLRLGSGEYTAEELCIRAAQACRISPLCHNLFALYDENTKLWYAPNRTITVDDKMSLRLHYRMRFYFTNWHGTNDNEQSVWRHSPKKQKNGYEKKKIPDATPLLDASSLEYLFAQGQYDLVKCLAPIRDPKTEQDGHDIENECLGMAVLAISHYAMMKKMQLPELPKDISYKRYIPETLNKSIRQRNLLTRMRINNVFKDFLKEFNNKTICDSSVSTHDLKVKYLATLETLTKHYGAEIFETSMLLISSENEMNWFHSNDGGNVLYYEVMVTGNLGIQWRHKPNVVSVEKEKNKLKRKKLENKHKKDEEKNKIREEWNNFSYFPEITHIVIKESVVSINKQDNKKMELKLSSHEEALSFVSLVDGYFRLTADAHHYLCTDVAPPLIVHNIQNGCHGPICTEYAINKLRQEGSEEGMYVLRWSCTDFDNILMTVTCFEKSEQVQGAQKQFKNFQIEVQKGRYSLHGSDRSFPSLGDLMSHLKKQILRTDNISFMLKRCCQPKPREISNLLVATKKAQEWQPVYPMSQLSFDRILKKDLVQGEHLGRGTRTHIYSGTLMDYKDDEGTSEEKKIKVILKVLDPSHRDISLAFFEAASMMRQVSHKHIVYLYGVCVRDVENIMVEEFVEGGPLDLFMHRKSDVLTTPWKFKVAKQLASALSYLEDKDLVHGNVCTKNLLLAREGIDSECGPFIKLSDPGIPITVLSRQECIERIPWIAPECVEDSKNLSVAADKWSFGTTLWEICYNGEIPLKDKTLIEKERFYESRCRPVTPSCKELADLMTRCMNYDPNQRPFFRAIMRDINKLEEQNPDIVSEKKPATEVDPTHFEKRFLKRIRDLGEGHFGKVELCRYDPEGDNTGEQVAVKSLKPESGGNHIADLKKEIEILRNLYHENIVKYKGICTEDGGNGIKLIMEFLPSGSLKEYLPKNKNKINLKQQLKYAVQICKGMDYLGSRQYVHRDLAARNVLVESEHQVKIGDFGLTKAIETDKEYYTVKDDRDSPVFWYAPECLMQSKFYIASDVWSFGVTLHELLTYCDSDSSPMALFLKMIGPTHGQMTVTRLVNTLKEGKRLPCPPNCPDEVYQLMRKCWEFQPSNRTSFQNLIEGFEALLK
T5 sequence (Q13164 whole entry): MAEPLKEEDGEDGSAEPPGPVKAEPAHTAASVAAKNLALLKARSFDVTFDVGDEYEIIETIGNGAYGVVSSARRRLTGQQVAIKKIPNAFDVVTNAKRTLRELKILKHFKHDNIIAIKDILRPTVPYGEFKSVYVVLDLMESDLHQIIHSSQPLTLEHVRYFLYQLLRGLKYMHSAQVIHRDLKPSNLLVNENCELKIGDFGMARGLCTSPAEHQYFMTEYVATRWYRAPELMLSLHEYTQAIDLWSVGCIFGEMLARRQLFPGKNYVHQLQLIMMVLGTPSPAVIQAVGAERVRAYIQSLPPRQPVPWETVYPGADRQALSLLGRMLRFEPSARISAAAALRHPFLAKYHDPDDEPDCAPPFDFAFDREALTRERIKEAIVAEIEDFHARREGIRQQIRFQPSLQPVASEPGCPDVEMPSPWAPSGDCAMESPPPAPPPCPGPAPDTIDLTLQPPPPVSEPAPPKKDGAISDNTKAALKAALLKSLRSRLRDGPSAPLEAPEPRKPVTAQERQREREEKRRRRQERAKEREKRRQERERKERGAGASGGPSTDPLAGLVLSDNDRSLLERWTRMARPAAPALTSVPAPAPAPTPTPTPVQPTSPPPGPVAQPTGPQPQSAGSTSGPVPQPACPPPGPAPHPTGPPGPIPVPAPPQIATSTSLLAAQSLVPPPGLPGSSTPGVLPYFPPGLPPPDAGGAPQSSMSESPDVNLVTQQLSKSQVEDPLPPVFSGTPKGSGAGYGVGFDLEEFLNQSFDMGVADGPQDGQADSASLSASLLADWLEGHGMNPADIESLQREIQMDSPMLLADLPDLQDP
T4 sequence (Q07912 whole entry): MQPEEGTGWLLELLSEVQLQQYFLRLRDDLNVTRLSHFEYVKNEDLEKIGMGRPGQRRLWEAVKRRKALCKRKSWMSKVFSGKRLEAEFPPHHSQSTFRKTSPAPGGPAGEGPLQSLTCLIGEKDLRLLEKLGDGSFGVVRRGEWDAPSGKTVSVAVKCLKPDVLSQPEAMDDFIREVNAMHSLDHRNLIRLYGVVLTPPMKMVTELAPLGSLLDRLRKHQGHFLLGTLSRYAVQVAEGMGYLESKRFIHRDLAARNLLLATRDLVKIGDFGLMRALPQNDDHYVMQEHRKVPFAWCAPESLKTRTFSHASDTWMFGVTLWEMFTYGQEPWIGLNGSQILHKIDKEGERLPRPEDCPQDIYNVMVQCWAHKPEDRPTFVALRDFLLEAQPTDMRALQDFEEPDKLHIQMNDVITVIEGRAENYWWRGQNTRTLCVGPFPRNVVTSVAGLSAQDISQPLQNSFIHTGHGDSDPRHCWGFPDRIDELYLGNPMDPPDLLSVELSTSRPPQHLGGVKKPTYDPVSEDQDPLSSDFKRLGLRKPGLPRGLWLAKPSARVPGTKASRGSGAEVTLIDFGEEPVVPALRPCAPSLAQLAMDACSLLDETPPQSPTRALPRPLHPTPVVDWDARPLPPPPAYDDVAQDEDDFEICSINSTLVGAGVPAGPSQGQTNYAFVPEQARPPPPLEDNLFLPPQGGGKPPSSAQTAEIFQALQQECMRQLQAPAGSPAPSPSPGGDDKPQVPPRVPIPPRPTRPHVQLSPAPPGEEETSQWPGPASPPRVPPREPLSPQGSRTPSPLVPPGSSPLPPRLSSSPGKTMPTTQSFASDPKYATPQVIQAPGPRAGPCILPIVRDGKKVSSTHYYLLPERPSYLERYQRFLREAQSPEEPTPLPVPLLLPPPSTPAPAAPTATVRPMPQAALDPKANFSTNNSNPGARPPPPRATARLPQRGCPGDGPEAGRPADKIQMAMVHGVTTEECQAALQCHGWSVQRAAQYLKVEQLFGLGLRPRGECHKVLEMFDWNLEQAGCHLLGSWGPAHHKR

inhibition at 1 µM [1] [%]	inhibition at 1 µM [3] [%]	AurB or AurC Inhibition % at indicated screening concentration ([4]; screening concentration 1 μM)	inhibition at 1 µM [5] [%]	inhibition at 1 µM [6] [%]	ABL or ARG Inhibition % at indicated screening concentration ([7]; screening concentration 1 μM)	AMPKa1 or AMPKa2 Inhibition % at indicated screening concentration ([8]; screening concentration 1 μM)	IC50 [9, 10] [nM]	inhibition at 1 µM [9] [%]	inhibition at 10 µM [1] [%]	inhibition at 10 µM [3] [%]	AurB or AurC Inhibition % at indicated screening concentration ([4]; screening concentration 10 μM)	inhibition at 10 µM [5] [%]	inhibition at 10 µM [6] [%]	ABL or ARG Inhibition % at indicated screening concentration ([7]; screening concentration 10 μM)	AMPKa1 or AMPKa2 Inhibition % at indicated screening concentration ([8]; screening concentration 10 μM)	inhibition at 10 µM [9] [%]	Structure (SMILES)	EC50 [2] [nM]	other results
≤ 35	≤ 35	E (E is ≦35%)	≤ 35	≤ 35	E (E is ≦35%)	E (E is ≦35%)	101 to 500	50 to 75									CCOc1cc(C(=O)N[C@H]2CC[C@H](C#N)CC2)ccc1Nc1cc2c(cn1)N(C)C(=O)c1ccccc1N2C [Compound T59]	720	
≤ 35	≤ 35	E (E is ≦35%)	≤ 35	≤ 35	E (E is ≦35%)	E (E is ≦35%)	≤ 50	> 90									CC(=O)N1CCN(C(=O)c2ccc(Nc3cc4c(cn3)N(C)C(=O)c3ccccc3N4C)c(F)c2)CC1 [Compound T71]	4200	
							> 500		≤ 35	≤ 35	E (E is ≦35%)	≤ 35	50 to 75	E (E is ≦35%)	E (E is ≦35%)	35 to 50	CCOc1cc(C(=O)N2CCC(N3CCCC3)CC2)ccc1Nc1cc2c(cn1)N(C)C(=O)N1C=CC=CC1=N2 [Compound T66]	> 10000	
							> 500		≤ 35	50 to 75	B (B is >75% to ≦90%)	35 to 50	≤ 35	E (E is ≦35%)	E (E is ≦35%)	75 to 90	CN1C(=O)c2ccccc2N(C)c2cc(N[C@H]3C[C@H](O)C3)ncc21 [Compound T88]	2530	
≤ 35	≤ 35	E (E is ≦35%)	≤ 35	≤ 35	E (E is ≦35%)	E (E is ≦35%)	> 500	50 to 75									CCOc1cc(C(=O)N2CC[C@@H](N3CCN(C)CC3)C2)ccc1Nc1cc2c(cn1)N(C)C(=O)c1scnc1N2C [Compound T74]	4820	

The remaining lines, values behind:

Structure (SMILES)	inhibition at 1 µM [1] [%]	inhibition at 1 µM [3] [%]	AurB or AurC Inhibition % at indicated screening concentration ([4]; screening concentration 1 μM)	inhibition at 1 µM [5] [%]	inhibition at 1 µM [6] [%]	ABL or ARG Inhibition % at indicated screening concentration ([7]; screening concentration 1 μM)	AMPKa1 or AMPKa2 Inhibition % at indicated screening concentration ([8]; screening concentration 1 μM)	IC50 [9, 10] [nM]	inhibition at 1 µM [9] [%]	inhibition at 10 µM [1] [%]	inhibition at 10 µM [3] [%]	AurB or AurC Inhibition % at indicated screening concentration ([4]; screening concentration 10 μM)	inhibition at 10 µM [5] [%]	inhibition at 10 µM [6] [%]	ABL or ARG Inhibition % at indicated screening concentration ([7]; screening concentration 10 μM)	AMPKa1 or AMPKa2 Inhibition % at indicated screening concentration ([8]; screening concentration 10 μM)	inhibition at 10 µM [9] [%]	EC50 [2] [nM]	other results
Cc1cc(C(=O)N2CC[C@@H](N(C)C)C2)ccc1Nc1cc2c(cn1)N(C)C(=O)c1ccccc1N2C [Compound 32]																		6360	inhibition at 0.1 µM ([1]; screening concentration 0.1 μM, read-out: Kinase inhibition % at indicated screening concentration: JAK1): ≤ 35%; inhibition at 0.1 µM ([3]; screening concentration 0.1 μM, read-out: Kinase inhibition % at indicated screening concentration: AurA): ≤ 35%; Kinase inhibition % at indicated screening concentration: AurB or AurC ([4]; screening concentration 0.1 μM): E (E is ≦35%); inhibition at 0.1 µM ([5]; screening concentration 0.1 μM, read-out: Kinase inhibition % at indicated screening concentration: TAO2): ≤ 35%; inhibition at 0.1 µM ([6]; screening concentration 0.1 μM, read-out: Kinase inhibition % at indicated screening concentration: ACK): ≤ 35%; Kinase inhibition % at indicated screening concentration: ABL or ARG ([7]; screening concentration 0.1 μM): E (E is ≦35%); Kinase inhibition % at indicated screening concentration: AMPKa1 or AMPKa2 ([8]; screening concentration 0.1 μM): E (E is ≦35%); IC50 ([9]; calculated from percent inhibition of AX9989 labeling and the screening concentration): ≤ 50 nM; inhibition at 0.1 µM ([9]; screening concentration 0.1 μM, read-out: Kinase inhibition % at indicated screening concentration: ERK5): 75 to 90%
CN1CCN([C@@H]2CCN(C(=O)c3ccc(Nc4cc5c(cn4)N(C)C(=O)c4ccccc4N5C)c(OC(F)F)c3)C2)CC1 [Compound T75]	≤ 35	≤ 35	E (E is ≦35%)	≤ 35	≤ 35	E (E is ≦35%)	E (E is ≦35%)	≤ 50	> 90									1550 ± 1110	
CCOc1cc(C(=O)N2CCC(N3CCN(C)CC3)CC2)ccc1Nc1cc2c(cn1)N(C)C(=O)c1ccccc1N2S(C)(=O)=O [Compound T85]	≤ 35	≤ 35	E (E is ≦35%)	≤ 35	≤ 35	E (E is ≦35%)	E (E is ≦35%)	> 500	≤ 35									> 15000	
CCOc1cc(C(=O)N2CCN(C3CCN(C)CC3)CC2)ccc1Nc1cc2c(cn1)N(C)C(=O)c1ccccc1[S+]2[O-] (stereo not drawn) [Compound T100]								> 500		≤ 35	≤ 35	E (E is ≦35%)	≤ 35	≤ 35	E (E is ≦35%)	E (E is ≦35%)	75 to 90	> 15000	
